Results from ChEMBL document CHEMBL6109096, “Synthesis, anti-allergic rhinitis evaluation and mechanism investigation of novel 1,2,4-triazole-enamides as CB1 R antagonist” (Eur J Med Chem, 2025).
The source made the active and inactive calls. No cut-off for these calls is given here.

Key:
[1] = test system: RAW264.7; assay: Cytotoxicity against mouse RAW264.7 cells assessed as reduction in cell viability at 10 uM incubated for 24 hrs by CCK-8 assay; assay type: toxicity, cell-based; conditions: raw264.7, 24 h
[2] = test system: RAW264.7; assay: Inhibition of IL-1beta (unknown origin) in mouse RAW264.7 relative to control; assay type: cell-based; conditions: dose or concentration not given here
[3] = test system: RAW264.7; assay: Inhibition of IL-6 (unknown origin) in mouse RAW264.7 relative to control; assay type: cell-based; conditions: dose or concentration not given here
[4] = test system: RAW264.7; assay: Downregulation of p-ERK protein expression in LPS-induced mouse RAW264.7 cells at 5 to 20 uM by Western blotting analysis; assay type: functional, cell-based; conditions: dose 5-20 µM
[5] = test system: Mus musculus; assay: Anti-inflammatory activity in ovalbumin-induced allergic rhinitis male Balb/c mouse model assessed as reduction in serum histamine expression at 150 mg/kg, po administered via gavage for 7 days by ELISA; assay type: functional, organism-based; conditions: time 7.0 day
[6] = test system: RAW264.7; assay: Downregulation of P-IKBalpha protein expression in LPS-induced mouse RAW264.7 cells at 5 to 20 uM by Western blotting analysis; assay type: functional, cell-based; conditions: dose 5-20 µM
[7] = test system: RAW264.7; assay: Anti-inflammatory activity in LPS-induced mouse RAW264.7 cells assessed as reduction in IL-6 mRNA expression incubated for 24 hrs by qRT-PCR analysis; assay type: functional, cell-based; conditions: dose 5-20 µM
[8] = test system: Mus musculus; assay: Anti-inflammatory activity in ovalbumin-induced allergic rhinitis male Balb/c mouse model assessed as reduction in IL-4 expression in nasal lavage fluid at 50 to 150 mg/kg, po administered via gavage for 7 days by ELISA; assay type: functional, organism-based; conditions: dose 50-150 mg/kg, time 7.0 day
[9] = test system: Mus musculus; assay: Anti-inflammatory activity in ovalbumin-induced allergic rhinitis male Balb/c mouse model assessed as reduction in sneezing administered orally via gavage for 7 days; assay type: functional, organism-based; conditions: dose 50-150 mg/kg, route po, time 7.0 day
[10] = test system: Mus musculus; assay: Anti-inflammatory activity in ovalbumin-induced allergic rhinitis male Balb/c mouse assessed as reduction in number of eosinophils on nasal lavage fluid at 50 to 150 mg/kg, po administered via gavage for 7 days by giemsa staining based analysis; assay type: functional, organism-based; conditions: dose 50-150 mg/kg, time 7.0 day
[11] = test system: RAW264.7; assay: Downregulation of p-JNK protein expression in LPS-induced mouse RAW264.7 cells at 5 to 20 uM by Western blotting analysis; assay type: functional, cell-based; conditions: dose 5-20 µM
[12] = test system: RAW264.7; assay: Downregulation of p-P38 expression in mouse RAW264.7 cells at 5 to 20 uM by immunofluorescence staining based analysis; assay type: functional, cell-based; conditions: dose 5-20 µM
[13] = test system: RAW264.7; assay: Downregulation of CB1 R expression in LPS-induced mouse RAW264.7 cells at 5 to 20 uM by immunofluorescence staining based analysis; assay type: functional, cell-based; conditions: dose 5-20 µM
[14] = test system: RAW264.7; assay: Anti-inflammatory activity in LPS-induced mouse RAW264.7 cells assessed as reduction in TNF-alpha mRNA expression incubated for 24 hrs by qRT-PCR analysis; assay type: functional, cell-based; conditions: dose 5-20 µM
[15] = test system: RAW264.7; assay: Downregulation of p-P38 intranuclear expression in mouse RAW264.7 cells at 5 to 20 uM by immunofluorescence staining based analysis; assay type: functional, cell-based; conditions: dose 5-20 µM
[16] = test system: RAW264.7; assay: Downregulation of p-P38 protein expression in LPS-induced mouse RAW264.7 cells at 5 to 20 uM by Western blotting analysis; assay type: functional, cell-based; conditions: dose 5-20 µM
[17] = test system: Mus musculus; assay: Anti-inflammatory activity in ovalbumin-induced allergic rhinitis male Balb/c mouse assessed as reduction in number of eosinophils on nasal lavage fluid at 150 mg/kg, po administered via gavage for 7 days by giemsa staining based analysis; assay type: functional, organism-based; conditions: time 7.0 day
[18] = test system: Mus musculus; assay: Anti-inflammatory activity in ovalbumin-induced allergic rhinitis male Balb/c mouse model assessed as decrease in p-p38 intranuclear expression in nasal mucosal at 50 to 150 mg/kg, po administered via gavage for 7 days by immunofluorescence staining based analysis; assay type: functional, organism-based; conditions: dose 50-150 mg/kg, time 7.0 day
[19] = test system: Mus musculus; assay: Anti-inflammatory activity in ovalbumin-induced allergic rhinitis male Balb/c mouse model assessed as reduction in IgE expression at 50 mg/kg, po administered via gavage for 7 days (reference value: 0.268 +/- 0.045); assay type: functional; conditions: time 7 day
[20] = test system: Mus musculus; assay: Anti-inflammatory activity in ovalbumin-induced allergic rhinitis male Balb/c mouse assessed as reduction in inflammation of nasal mucosal tissue at 50 to 150 mg/kg, po administered via gavage for 7 days by H and E staining based analysis; assay type: functional, organism-based; conditions: dose 50-150 mg/kg, time 7.0 day
[21] = test system: Mus musculus; assay: Anti-inflammatory activity in ovalbumin-induced allergic rhinitis male Balb/c mouse model assessed as reduction in serum histamine expression at 50 to 150 mg/kg, po administered via gavage for 7 days by ELISA; assay type: functional, organism-based; conditions: dose 50-150 mg/kg, time 7.0 day
[22] = test system: Mus musculus; assay: Anti-inflammatory activity in ovalbumin-induced allergic rhinitis male Balb/c mouse model assessed as reduction in nose scratching administered orally via gavage for 7 days; assay type: functional, organism-based; conditions: dose 50-150 mg/kg, route po, time 7.0 day
[23] = test system: Mus musculus; assay: Anti-inflammatory activity in ovalbumin-induced allergic rhinitis male Balb/c mouse assessed as reduction in number of mast cells on nasal lavage fluid at 150 mg/kg, po administered via gavage for 7 days by giemsa staining based analysis; assay type: functional, organism-based; conditions: time 7.0 day
[24] = test system: RAW264.7; assay: Downregulation of P-P65 protein expression in LPS-induced mouse RAW264.7 cells at 5 to 20 uM by Western blotting analysis; assay type: functional, cell-based; conditions: dose 5-20 µM
[25] = test system: Mus musculus; assay: Anti-inflammatory activity in ovalbumin-induced allergic rhinitis male Balb/c mouse assessed as reduction in number of cells on nasal lavage fluid at 50 to 150 mg/kg, po administered via gavage for 7 days by giemsa staining based analysis; assay type: functional, organism-based; conditions: dose 50-150 mg/kg, time 7.0 day
[26] = test system: RAW264.7; assay: Anti-inflammatory activity in LPS-induced mouse RAW264.7 cells assessed as reduction in IL-1beta mRNA expression incubated for 24 hrs by qRT-PCR analysis; assay type: functional, cell-based; conditions: dose 5-20 µM
[27] = test system: Mus musculus; assay: Anti-inflammatory activity in ovalbumin-induced allergic rhinitis male Balb/c mouse assessed as reduction in number of mast cells on nasal lavage fluid at 50 to 150 mg/kg, po administered via gavage for 7 days by giemsa staining based analysis; assay type: functional, organism-based; conditions: dose 50-150 mg/kg, time 7.0 day
[28] = test system: Mus musculus; assay: Anti-inflammatory activity in ovalbumin-induced allergic rhinitis male Balb/c mouse assessed as reduction in number of goblet cells in nasal mucosal tissues at 50 to 150 mg/kg, po administered via gavage for 7 days by PAS staining based analysis; assay type: functional, organism-based; conditions: dose 50-150 mg/kg, time 7.0 day
[29] = test system: Mus musculus; assay: Anti-inflammatory activity in ovalbumin-induced allergic rhinitis male Balb/c mouse model assessed as reduction in IgE expression at 100 mg/kg, po administered via gavage for 7 days (reference value: 0.268 +/- 0.045); assay type: functional; conditions: time 7 day
[30] = test system: Mus musculus; assay: Anti-inflammatory activity in ovalbumin-induced allergic rhinitis male Balb/c mouse model assessed as reduction in IgE expression at 150 mg/kg, po administered via gavage for 7 days (reference value: 0.268 +/- 0.045); assay type: functional; conditions: time 7 day

In the case of `CN(/C=C\c1ccccc1)C(=O)c1nc(-c2ccc(F)cc2)n(-c2ccccc2)n1`, the Activity [1] is reported as “Non-toxic”.
`CN(/C=C\c1ccccc1)C(=O)c1ncn(-c2ccccc2)n1` was tested, and the Activity [1] was “Non-toxic”.
`CN(/C=C\c1ccccc1)C(=O)/C=C/c1ccccc1` was tested, and the inhibition [2] was 19%.
In the case of `CN(/C=C\c1ccccc1)C(=O)c1nc(-c2cccc3ccccc23)n(-c2ccccc2)n1`, the inhibition [2] is reported as 74%, the Activity [1] is reported as “Non-toxic” and the inhibition [3] is reported as 86%.
`CN(/C=C\c1ccccc1)C(=O)c1nc(C2CCCCC2)n(-c2ccccc2)n1` was tested, and the Activity [4] was “Active”, the Activity [5] was “Active; More Effective Than Other Dosing Group” and the Activity [6] was “Active”. For the same molecule, the Activity [7] was “Dose-dependent-effect”, the Activity [8] was “Active” and the Activity [9] was “Dose-dependent-effect”. For the same molecule, the Activity [10] was “Active”, the Activity [11] was “Active” and the Activity [12] was “Active”. The Activity [13] was “Active”, the Activity [14] was “Dose-dependent-effect” and the inhibition [2] was 77%. For the same molecule, the Activity [15] was “Active”, the Activity [16] was “Active” and the Activity [17] was “Active; Most Effective Group Compared To Other Dosing Group”. For the same molecule, the Activity [1] was “Non-toxic”, the inhibition [3] was 88% and the Activity [18] was “Active”. The Activity [19] was 0.192, the Activity [20] was “Active” and the Activity [21] was “Active”. For the same molecule, the Activity [22] was “Dose-dependent-effect”, the Activity [23] was “Active; Most Effective Group Compared To Other Dosing Group” and the Activity [24] was “Active”. The Activity [25] was “Active”, the Activity [26] was “Dose-dependent-effect” and the Activity [27] was “Active”. The Activity [28] was “Active”, the Activity [29] was 0.212 and the Activity [30] was 0.182.
In the case of `CN(/C=C\c1ccccc1)C(=O)c1nc(-c2ccccc2)n(-c2ccccc2)n1`, the Activity [1] is reported as “Non-toxic”.
